Source: ChEMBL document CHEMBL4706771, “Discovery of Orally Bioavailable Ligand Efficient Quinazolindiones as Potent and Selective Tankyrases Inhibitors” (ACS Med Chem Lett, 2021)
Calls of active or inactive are those of the source. The calls are words filed in the database; no cut-off is given here.

How the values were obtained:
[1] = Toxicity in Wistar Han rat assessed as abnormal mucoid fecal consistency at >= 100 mg/kg, po administered for 7 days and measured on day 7; assay type: organism-based; conditions: in vivo, 168 h, time 7 day
[2] = Toxicity in Wistar Han rat assessed as abnormal watery fecal consistency at >= 100 mg/kg, po administered for 7 days and measured on day 7; assay type: organism-based; conditions: in vivo, 168 h, time 7 day
[3] = Toxicity in Wistar Han rat assessed as abnormal soft fecal consistency at >= 100 mg/kg, po administered for 7 days and measured on day 7; assay type: organism-based; conditions: in vivo, 168 h, time 7 day
NCI-H292 [4] = test: Antitumor activity against human NCI-H292 cells xenografted in BALB/c mouse assessed as maximal potency administered orally for 14 days and measured on day 14; assay type: functional; conditions: time 14 day
NCI-H292 [5] = test: Antitumor activity against human NCI-H292 cells xenografted in BALB/c mouse assessed as reduction in tumor volume at 10 to 30 mg/kg, po administered for 14 days and measured on day 14; assay type: functional, organism-based; conditions: dose 10-30 mg/kg, time 14.0 day
[6] = Half life in Sprague-Dawley rat at 8.6 mg/kg, po or 0.5 mg/kg, iv; assay type: ADME, organism-based; conditions: in vivo
[7] = Volume of distribution in Beagle dog at 2 mg/kg, po or 1 mg/kg, iv; assay type: ADME, organism-based, Canis lupus familiaris; conditions: in vivo
[8] = Clearance in Beagle dog at 2 mg/kg, po or 1 mg/kg, iv; assay type: ADME, organism-based, Canis lupus familiaris; conditions: in vivo
[9] = Oral bioavailability in Beagle dog at 2 mg/kg; assay type: ADME, organism-based, Canis lupus familiaris; conditions: in vivo
[10] = Mutagenicity in Escherichia coli WP2uvrA in presence of S9 fraction by ames test; assay type: toxicity, subcellular
[11] = Mutagenicity in Escherichia coli WP2uvrA by ames test; assay type: toxicity
NCI-H292 [12] = test: Antitumor activity against human NCI-H292 cells xenografted in BALB/c mouse assessed as reduction in tumor growth at 3 mg/kg, po administered for 14 days and measured on day 14; assay type: functional, organism-based; conditions: time 14.0 day
[13] = Half life in C57 mouse at 3 mg/kg, po or 1 mg/kg, iv; assay type: ADME, organism-based; conditions: in vivo
[14] = Toxicity in Wistar Han rat assessed as decrease in activity at >= 100 mg/kg, po administered for 7 days and measured on day 7; assay type: organism-based; conditions: in vivo, 168 h, time 7 day
[15] = Mutagenicity in Salmonella typhimurium TA1537 by ames test; assay type: toxicity; conditions: salmonella enterica subsp. enterica serovar typhimurium
[16] = Clearance in Sprague-Dawley rat at 8.6 mg/kg, po or 0.5 mg/kg, iv; assay type: ADME, organism-based; conditions: in vivo
[17] = Inhibition of Wnt/beta-catenin (unknown origin) expressed in human HEK293 cells expressing MSRII transfected with DNA-LF2K incubated for 24 hrs by luciferase reporter gene assay; conditions: HEK293, 24 h
[18] = Toxicity in Wistar Han rat assessed as irregular breathing at >= 100 mg/kg, po administered for 7 days and measured on day 7; assay type: organism-based; conditions: in vivo, 168 h, time 7 day

half-life [6]: 3.89 h
Vd [7]: 2.12 L/kg
clearance [8]: 3.15 mL/min/kg
bioavailability [9]: 52.2%
half-life [13]: 10.9 h
clearance [16]: 3.48 mL/min/kg
IC50 [17]: 20 nM
Structure (SMILES): Cc1cccc2c1c(=O)n(C[C@H]1CC[C@H](C(=O)O)CC1)c(=O)n2Cc1cccc(C(F)(F)F)c1C#N
Activity [1]: Toxic
Activity [2]: Toxic
Activity [3]: Toxic
ECmax (NCI-H292 [4]): 10 mg/kg
Activity (NCI-H292 [5]): Active
Activity [10]: Non-Toxic
Activity [11]: Non-Toxic
Activity (NCI-H292 [12]): Active
Activity [14]: Toxic
Activity [15]: Non-Toxic
Activity [18]: Toxic
